Measured values from paper PMC4579271, “Inflammatory Signaling by NOD-RIPK2 Is Inhibited by Clinically Relevant Type II Kinase Inhibitors” (Chemistry & Biology, 2015).

How the values were obtained:
[1] = test system: IκBα degradation in THP-1 cells; assay: Immunoblot of IκBα in L18-MDP-stimulated THP-1 cells; type: cell-based, human; details: 100 nM pre-treatment, 200 ng/ml L18-MDP
Procedure: (§1) Figure 5 Inhibition of NOD2-Dependent Ubiquitination and Signaling (A–C) THP-1 cells were pre-treated with kinase inhibitors or DMSO for 30 min and stimulated with 200 ng/ml L18-MDP (A, B) or TNF (C) as indicated. At the indicated time points, cells were lysed and ubiquitinated proteins were isolated using TUBE reagent. The isolated ubiquitinated proteins and input material were analyzed by immunoblotting. See also Figure S6.
(§2) The ubiquitin conjugates were purified using GST-Tandem Ubiquitin Binding Entities (TUBE; [Fiil et al., 2013]). In brief, treated THP-1 cells (6–10 × 10^6) were washed with PBS and lysed in 400 μl of ice-cold lysis buffer containing TUBE on ice for 30 min. Cleared lysates were incubated with Glutathione Sepharose 4B resin (Amersham) with agitation at 4°C overnight. The beads were washed four times with PBS-Tween (0.1%) and the bound proteins were released by heating the beads in reducing SDS sample buffer. The samples were resolved on pre-cast gradient gels (NuPage; Life Technologies) in MOPS running buffer and subjected to immunoblotting.

[2] = test system: RIPK1 ubiquitination and IκBα degradation in THP-1 cells; assay: TUBE purification and immunoblot, TNF-stimulated THP-1 cells; type: cell-based, human; details: TNF treatment
Procedure: as §1, §2

[3] = test system: LPS and Pam3CSK4 responses in RAW264.7 cells; assay: qRT-PCR of Toll-like receptor-dependent inflammatory gene expression in RAW264.7 cells (LPS, Pam3CSK4); type: cell-based, mouse; details: 100 nM
Procedure: Figure 6 Inhibition of NOD-Dependent Inflammatory Gene Expression in RAW264.7 Cells (A and B) Cells were pre-treated with 1, 10, or 100 nM inhibitors for 30 min and stimulated with 10 μg/ml MDP (A) or Tri-DAP (B) for 18–24 hr in triplicate. RNA samples were isolated and changes in gene expression were analyzed using gene-specific primers using SYBR qRT-PCR. All values were normalized to the levels of GAPDH. (C and D) Lack of inhibition of Toll-like receptor-dependent inflammatory gene expression in RAW264.7 cells. Experiments were performed as described above, except cells were stimulated with 10 ng/ml E. coli LPS (C) or 500 ng/ml Pam3CSK4 (D). All experiments were performed in triplicate; error bars indicate SD values.
40C centrifuge at 14,000 rpm for 15 min to collect lysates. Protein concentrations were measured using […] protein assay reagent (Pierce). […]
For ADPGlo (Promega) assays, 1 ng Abl or 10 ng of RIPK2 was diluted in reaction buff er (40 mM Tris-HCl pH 7.5, 20 mM MgCl2, 0.5 m M DTT, 0.01% BSA) supplemented with 50 µM ATP and 10-point dose range of inhibitors. […] Luminescent signal was generated by addition of 10 µL of kinase detection reagent for 30 minutes at room temperature and determined using Victor3V platereader (Perkin Elmer). Specific signal was calculated by subtracting values in the wells without protein and inhibitor from the values in the test wells. […]

RIPK3 = RIPK3 (Homo sapiens, UniProt Q9Y572); design: method as in Najjar et al., 2015; details: ref Najjar et al., 2015; cited from earlier work
RIPK3, sequence (Q9Y572 whole entry, species assumed): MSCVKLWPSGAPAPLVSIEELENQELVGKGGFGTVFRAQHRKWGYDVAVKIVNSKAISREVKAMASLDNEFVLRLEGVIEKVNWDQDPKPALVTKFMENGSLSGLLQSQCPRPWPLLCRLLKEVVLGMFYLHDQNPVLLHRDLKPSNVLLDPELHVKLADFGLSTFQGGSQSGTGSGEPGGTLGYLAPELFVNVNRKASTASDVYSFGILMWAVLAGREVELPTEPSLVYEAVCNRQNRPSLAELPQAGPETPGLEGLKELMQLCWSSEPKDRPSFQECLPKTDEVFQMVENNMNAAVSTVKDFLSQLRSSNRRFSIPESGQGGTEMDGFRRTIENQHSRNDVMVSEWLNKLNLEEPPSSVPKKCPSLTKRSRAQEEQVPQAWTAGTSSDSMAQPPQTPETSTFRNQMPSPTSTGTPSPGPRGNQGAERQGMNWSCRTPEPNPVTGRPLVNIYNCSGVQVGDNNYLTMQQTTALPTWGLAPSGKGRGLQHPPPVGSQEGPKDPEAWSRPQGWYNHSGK

[4] = design: method as in Cortes et al., 2013; details: clinical use; ref Cortes et al., 2013; cited from earlier work
[5] = test system: NF-κB activation in HEKBlue cells expressing NOD2; assay: HEKBlue NF-κB-SEAP reporter activation assay, L18-MDP stimulation; details: Homo sapiens, HEK-Blue, 8 h, read-out: NFκB activity EC50
NOD2-RIPK2 interaction = NOD2-RIPK2 interaction (Homo sapiens, UniProt O43353); assay: HA-immunoprecipitation of RIPK2 with inducible HA-NOD2 in U2OS cells; details: 100 nM, 24 hr
NOD2-RIPK2 interaction, sequence (O43353 whole entry): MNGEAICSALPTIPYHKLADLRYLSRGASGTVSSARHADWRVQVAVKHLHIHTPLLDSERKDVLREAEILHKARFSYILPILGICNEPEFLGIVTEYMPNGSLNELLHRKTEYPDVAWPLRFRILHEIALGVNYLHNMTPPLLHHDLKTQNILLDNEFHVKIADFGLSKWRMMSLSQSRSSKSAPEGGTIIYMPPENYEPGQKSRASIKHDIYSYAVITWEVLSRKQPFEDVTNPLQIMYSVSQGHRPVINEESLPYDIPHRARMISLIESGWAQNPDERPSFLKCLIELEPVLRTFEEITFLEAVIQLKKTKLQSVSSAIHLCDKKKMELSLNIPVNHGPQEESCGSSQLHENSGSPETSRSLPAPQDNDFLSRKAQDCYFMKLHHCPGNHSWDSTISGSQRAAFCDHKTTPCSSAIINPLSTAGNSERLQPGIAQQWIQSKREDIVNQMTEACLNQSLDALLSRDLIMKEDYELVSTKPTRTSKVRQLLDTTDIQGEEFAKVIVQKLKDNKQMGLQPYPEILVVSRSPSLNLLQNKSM
NOD2-RIPK2 interaction, sequence (Q9HC29 whole entry partner): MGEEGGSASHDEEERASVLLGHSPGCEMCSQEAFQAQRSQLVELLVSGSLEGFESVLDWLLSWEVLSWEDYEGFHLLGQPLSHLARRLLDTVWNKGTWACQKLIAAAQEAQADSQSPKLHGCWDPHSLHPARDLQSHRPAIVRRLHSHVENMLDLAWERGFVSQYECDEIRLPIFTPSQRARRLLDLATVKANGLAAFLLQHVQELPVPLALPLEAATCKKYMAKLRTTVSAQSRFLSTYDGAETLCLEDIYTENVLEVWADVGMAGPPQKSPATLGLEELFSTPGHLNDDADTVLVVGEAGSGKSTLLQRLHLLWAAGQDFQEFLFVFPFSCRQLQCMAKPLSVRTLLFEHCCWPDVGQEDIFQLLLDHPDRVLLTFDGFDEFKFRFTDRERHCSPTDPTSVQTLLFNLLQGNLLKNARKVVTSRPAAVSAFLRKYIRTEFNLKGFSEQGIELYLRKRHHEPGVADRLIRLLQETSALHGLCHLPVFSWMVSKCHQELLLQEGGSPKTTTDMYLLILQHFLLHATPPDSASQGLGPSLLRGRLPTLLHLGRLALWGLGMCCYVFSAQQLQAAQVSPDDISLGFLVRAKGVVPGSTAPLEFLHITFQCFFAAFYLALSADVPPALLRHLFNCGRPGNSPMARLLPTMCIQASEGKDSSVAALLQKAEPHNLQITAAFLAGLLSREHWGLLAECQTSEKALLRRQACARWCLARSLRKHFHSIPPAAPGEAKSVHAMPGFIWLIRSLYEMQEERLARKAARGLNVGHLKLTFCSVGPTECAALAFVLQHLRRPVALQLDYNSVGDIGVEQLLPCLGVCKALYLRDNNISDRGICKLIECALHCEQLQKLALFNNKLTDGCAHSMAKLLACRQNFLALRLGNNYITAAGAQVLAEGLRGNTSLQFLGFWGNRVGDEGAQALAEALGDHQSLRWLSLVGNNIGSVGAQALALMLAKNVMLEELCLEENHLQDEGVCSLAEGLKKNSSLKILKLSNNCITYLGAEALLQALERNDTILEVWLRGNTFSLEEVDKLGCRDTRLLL

[6] = test system: NF-κB activation in U2OS cells; assay: NF-κB dual luciferase reporter assay in U2OS cells overexpressing HA-NOD2; details: 100 nM, 24 hr
[7] = test system: RIPK2 ubiquitination in THP-1 cells; assay: TUBE purification of ubiquitin conjugates, L18-MDP-stimulated THP-1 cells; details: 200 ng/ml L18-MDP

Cc1ccc(C(=O)Nc2ccc(CN3CCN(C)CC3)c(C(F)(F)F)c2)cc1C#Cc1cnc2cccnn12 [ponatinib, 3-[2-(imidazo[1,2-b]pyridazin-3-yl)ethynyl]-4-methyl-N-{4-[(4-methylpiperazin-1-yl)methyl]-3-(trifluoromethyl)phenyl}benzamide]
downstream degradation of IκBα [1]: blocked
ubiquitination of RIPK1 or IκBα degradation [2]: no obvious effects
LPS and Pam3CSK4 responses [3]: partially attenuated
inhibition of RIPK3 kinase activity in necroptosis (RIPK3): efficient inhibitor
adverse events [4]: serious adverse events including vascular thrombosis
EC50 [5]: 0.8 nM
NOD2-RIPK2 interaction (NOD2-RIPK2 interaction): stably maintained
NF-κB activation [6]: completely disabled
concentration completely blocking RIPK2 ubiquitination [7]: ≥ 25 nM
concentration reducing extent and length of ubiquitin-modified RIPK2 [7]: 5 to 10 nM
